Here are results for seven cell lines from the supplement of paper PMC10307832.

What all share (assay): relative viability (nuclei count vs DMSO), 5 days (fraction); higher = more cells survive
Compound in experiment [1]: CS(=O)(=O)c1ccc(C(=O)Nc2ccc(Cl)c(-c3ccccn3)c2)c(Cl)c1 [Vismodegib] + C[C@@H](Oc1cc(-c2cnn(C3CCNCC3)c2)cnc1N)c1c(Cl)ccc(F)c1Cl [Crizotinib] (partner 1 µM)
In a few lines:
(§1)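 Nuclei were stained with Hoechst during a one-step fixation (final 0.05% Triton X-100, 1% formaldehyde, 1 ug/ml Hoechst) carried out 5 days after dosing, then counted on 4× images. The cells, lung cancer lines in 1536-well plates, had been dosed by pin tool the day after seeding with one drug alone or a fixed anchor-drug dose plus five library-drug doses (not always all listed) in √10 steps. Relative viability is the nuclei count in treated wells divided by that in vehicle wells, and each value is the median of duplicate plates.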

Compound in experiment [2]: N#CC[C@H](C1CCCC1)n1cc(-c2ncnc3[nH]ccc23)cn1 [Ruxolitinib] + CCNC(=O)c1noc(-c2cc(C(C)C)c(O)cc2O)c1-c1ccc(CN2CCOCC2)cc1 [Luminespib] (partner 0.01 µM)
The procedure, abridged:
as §1

Compound in experiment [3]: N#CC[C@H](C1CCCC1)n1cc(-c2ncnc3[nH]ccc23)cn1 [Ruxolitinib] + Nc1nc2[nH]cc(CCc3ccc(C(=O)N[C@@H](CCC(=O)O)C(=O)O)cc3)c2c(=O)[nH]1 [Pemetrexed] (partner 0.2 µM)
The procedure, abridged: as §1

Compound in experiment [4]: N#CC[C@H](C1CCCC1)n1cc(-c2ncnc3[nH]ccc23)cn1 [Ruxolitinib] + C[C@@H](Oc1cc(-c2cnn(C3CCNCC3)c2)cnc1N)c1c(Cl)ccc(F)c1Cl [Crizotinib] (partner 1 µM)
In a few lines: as §1

On to NCI-H3122, for which the relative viability turned out to be 0.307 in experiment [1] (first compound 0.08 µM); 0.286 in experiment [1] (first compound 0.253 µM); 0.255 in experiment [1] (first compound 0.8 µM); 0.295 in experiment [1] (first compound 2.53 µM); 0.268 in experiment [1] (first compound 8 µM); 0.13 in experiment [2] (first compound 0.08 µM). For the same cell line, the relative viability in experiment [2] (first compound 0.253 µM) was determined as 0.108; in experiment [2] (first compound 0.8 µM), 0.0859; in experiment [2] (first compound 2.53 µM), 0.0958; in experiment [2] (first compound 8 µM), 0.113; in experiment [3] (first compound 0.08 µM), 0.212; in experiment [3] (first compound 0.253 µM), 0.198. The relative viability in experiment [3] (first compound 0.8 µM) is 0.192; in experiment [3] (first compound 2.53 µM) it was 0.19; in experiment [3] (first compound 8 µM), 0.188; in experiment [4] (first compound 0.08 µM) it was 0.332; in experiment [4] (first compound 0.253 µM), 0.269; in experiment [4] (first compound 0.8 µM), 0.282. The relative viability in experiment [4] (first compound 2.53 µM) was 0.312; in experiment [4] (first compound 8 µM) it was 0.282.
For PC-3 [JPC-3], the relative viability amounted to 0.93 in experiment [1] (first compound 0.08 µM); 0.991 in experiment [1] (first compound 0.253 µM); 0.964 in experiment [1] (first compound 0.8 µM); 0.93 in experiment [1] (first compound 2.53 µM); 0.956 in experiment [1] (first compound 8 µM); 0.663 in experiment [2] (first compound 0.08 µM). Besides, the relative viability in experiment [2] (first compound 0.253 µM) was found to be 0.677; in experiment [2] (first compound 0.8 µM), 0.755; in experiment [2] (first compound 2.53 µM) it was 0.579; in experiment [2] (first compound 8 µM) it was 0.734; in experiment [3] (first compound 0.253 µM), 1.13; in experiment [3] (first compound 0.8 µM), 1.18. For the same cell line, the relative viability is 1.11 in experiment [3] (first compound 2.53 µM); 0.907 in experiment [3] (first compound 8 µM); 0.886 in experiment [4] (first compound 0.08 µM); 1 in experiment [4] (first compound 0.253 µM); 0.998 in experiment [4] (first compound 0.8 µM); 1.01 in experiment [4] (first compound 2.53 µM). In experiment [4] (first compound 8 µM), the relative viability was determined as 0.874.
For PC-14, the relative viability was 0.835 in experiment [1] (first compound 0.08 µM); 0.777 in experiment [1] (first compound 0.253 µM); 0.971 in experiment [1] (first compound 0.8 µM); 0.914 in experiment [1] (first compound 2.53 µM); 0.839 in experiment [1] (first compound 8 µM); 0.181 in experiment [2] (first compound 0.253 µM). Further, the relative viability in experiment [2] (first compound 0.8 µM) worked out at 0.175; in experiment [2] (first compound 2.53 µM), 0.171; in experiment [2] (first compound 8 µM), 0.169; in experiment [3] (first compound 0.253 µM), 0.117; in experiment [3] (first compound 0.8 µM), 0.122; in experiment [3] (first compound 2.53 µM), 0.139. The relative viability in experiment [3] (first compound 8 µM) was found to be 0.12; in experiment [4] (first compound 0.253 µM), 0.949; in experiment [4] (first compound 0.8 µM), 0.883; in experiment [4] (first compound 2.53 µM), 0.819; in experiment [4] (first compound 8 µM) it was 0.655.
Turning to RERF-LC-KJ, the relative viability in experiment [1] (first compound 0.08 µM) turned out to be 0.821; in experiment [1] (first compound 0.253 µM), 0.813; in experiment [1] (first compound 0.8 µM), 0.81; in experiment [1] (first compound 2.53 µM) it was 0.848; in experiment [1] (first compound 8 µM), 0.82; in experiment [2] (first compound 0.08 µM) it was 1.21. The relative viability was found to be 1.31 in experiment [2] (first compound 0.253 µM); 1.4 in experiment [2] (first compound 0.8 µM); 1.21 in experiment [2] (first compound 2.53 µM); 0.919 in experiment [2] (first compound 8 µM); 0.471 in experiment [3] (first compound 0.08 µM); 0.485 in experiment [3] (first compound 0.253 µM). In addition, the relative viability in experiment [3] (first compound 0.8 µM) was found to be 0.505; in experiment [3] (first compound 2.53 µM) it was 0.465; in experiment [3] (first compound 8 µM), 0.456; in experiment [4] (first compound 0.08 µM) it was 0.863; in experiment [4] (first compound 0.253 µM), 0.868; in experiment [4] (first compound 0.8 µM) it was 0.864. Further, the relative viability came out at 0.827 in experiment [4] (first compound 2.53 µM) and 0.687 in experiment [4] (first compound 8 µM).
SK-LU-1: the relative viability in experiment [1] (first compound 0.08 µM) is 1.02; in experiment [1] (first compound 0.253 µM), 0.817; in experiment [1] (first compound 0.8 µM) it was 0.874; in experiment [1] (first compound 2.53 µM), 0.881; in experiment [1] (first compound 8 µM), 0.997; in experiment [2] (first compound 0.08 µM) it was 0.185. For the same cell line, the relative viability in experiment [2] (first compound 0.253 µM) turned out to be 0.204; in experiment [2] (first compound 0.8 µM) it was 0.255; in experiment [2] (first compound 2.53 µM), 0.182; in experiment [2] (first compound 8 µM), 0.207; in experiment [3] (first compound 0.08 µM), 1.03; in experiment [3] (first compound 0.253 µM) it was 1.02. Also, the relative viability in experiment [3] (first compound 0.8 µM) worked out at 1.01; in experiment [3] (first compound 2.53 µM), 0.919; in experiment [3] (first compound 8 µM) it was 0.792; in experiment [4] (first compound 0.08 µM), 1.01; in experiment [4] (first compound 0.253 µM), 1; in experiment [4] (first compound 0.8 µM), 1.08. For the same cell line, the relative viability was 0.847 in experiment [4] (first compound 2.53 µM) and 0.584 in experiment [4] (first compound 8 µM).
Turning to SK-MES-1, the relative viability is 0.94 in experiment [1] (first compound 0.08 µM); 0.936 in experiment [1] (first compound 0.253 µM); 0.923 in experiment [1] (first compound 0.8 µM); 0.969 in experiment [1] (first compound 2.53 µM); 1.07 in experiment [1] (first compound 8 µM); 0.782 in experiment [2] (first compound 0.08 µM). The relative viability in experiment [2] (first compound 0.253 µM) was determined as 0.84; in experiment [2] (first compound 0.8 µM) it was 0.762; in experiment [2] (first compound 2.53 µM), 0.652; in experiment [2] (first compound 8 µM), 0.549; in experiment [3] (first compound 0.08 µM) it was 1.03; in experiment [3] (first compound 0.253 µM), 0.865. Moreover, the relative viability in experiment [3] (first compound 0.8 µM) worked out at 1.01; in experiment [3] (first compound 2.53 µM), 0.849; in experiment [3] (first compound 8 µM), 0.823; in experiment [4] (first compound 0.08 µM), 1.03; in experiment [4] (first compound 0.253 µM), 0.984; in experiment [4] (first compound 0.8 µM), 1.02. Further, the relative viability turned out to be 0.925 in experiment [4] (first compound 2.53 µM) and 0.702 in experiment [4] (first compound 8 µM).
SW 1573: the relative viability came to 0.895 in experiment [1] (first compound 0.08 µM); 0.755 in experiment [1] (first compound 0.253 µM); 0.827 in experiment [1] (first compound 0.8 µM); 0.774 in experiment [1] (first compound 2.53 µM); 0.956 in experiment [1] (first compound 8 µM); 0.228 in experiment [2] (first compound 0.08 µM). The relative viability in experiment [2] (first compound 0.253 µM) came to 0.214; in experiment [2] (first compound 0.8 µM), 0.184; in experiment [2] (first compound 2.53 µM) it was 0.241; in experiment [2] (first compound 8 µM) it was 0.21; in experiment [3] (first compound 0.08 µM) it was 0.878; in experiment [3] (first compound 0.253 µM), 0.855. The relative viability in experiment [3] (first compound 0.8 µM) came out at 0.957; in experiment [3] (first compound 2.53 µM), 0.768; in experiment [3] (first compound 8 µM), 0.867; in experiment [4] (first compound 0.08 µM) it was 0.887; in experiment [4] (first compound 0.253 µM), 0.75; in experiment [4] (first compound 0.8 µM), 0.969. Also, the relative viability stood at 0.791 in experiment [4] (first compound 2.53 µM) and 0.733 in experiment [4] (first compound 8 µM).
